# Assays:
# HIV-1IIIB = test: Inhibition of HIV-induced cytopathic effect in MT-2 cell culture; format: cell-based; conditions: MT-2 cells
# Experimental: (§1) Inhibition of HIV-induced cytopathic effect in cell culture. The MT-2 cells were grown in RPMI-1640 medium with GlutaMAX™, supplemented with 10% (v/v) heat-inactivated fetal bovine serum (both from Gibco, Invitrogen corporation, Carlsbad). The cells were maintained at 37° C. in a humidified atmosphere of 5% CO2 in air. Every 4-5 days, cells were spun down and seeded at 2×10^5 cells/ml in new cell culture flasks. HIV ([…] isolate) was obtained from Advanced Biotechnology Incorporated (Columbia, Md.). The virus stock [3,2×10^4 CCID50 (50% cell culture infective dose) per ml as determined for MT-2 cells] was stored at −70° C. until used. Stock solutions of compounds were diluted using medium directly into 96-well assay plate (Costar, Corning inc, Corning, N.Y.).
# (§2) Cells were then infected with 100 CCID50 or mock-infected. The cell cultures were incubated at 37° C. in a humidified atmosphere of 5% CO2 in air. […] The percent cell viability in drug treated uninfected and infected cells was determined based on the viability of the uninfected control drug treated cells. The concentration of drug required to inhibit approximately 50% of the HIV-1 induced cytotoxicity was calculated from the plot of compound concentration verses the percent viable cells.
# HIV-1 integrase [1] = target: T1, HIV-1 integrase (Human immunodeficiency virus type 1 group M subtype B, UniProt P04585); test: Integrase binding to HIV DNA, Schiff base crosslinking assay; conditions: Mg2+
# T1 construct: Expression and purification of the recombinant HIV-1 integrase in Escherichia coli; made in house; host or cells: Escherichia coli
# Experimental: Integrase binding to HIV DNA using the shiff-base assay. The shiff-base assay was performed as described (Mazumder and Pommier, 1995). Briefly, 300 nM recombinant IN was incubated with inhibitors (at the indicated concentration) for 15 min at 37° C. Subsequently, 20 nM of 5′-end labeled substrate containing the abasic oligonucleotide (FIG. 6A) was added for 10 min at room temperature in reaction buffer described above for integrase catalytic assays. A freshly prepared solution of sodium borohydride (0.1 M final concentration) was added for 5 min. An equal volume (10 μl) of 2×SDS-polyacrylamide gel electrophoresis buffer (Invitrogen, Carlsbad, Calif.) was added in each reaction. Reaction products were heated at 95° C. for 1 min before analysis by electrophoresis in a 12-20% polyacrylamide gels (Invitrogen, Calif., USA). Gels were dried and reaction products were quantitated using the same method as described above.
# [2] = target: T2, Q148C/SSS-mutant integrase (Human immunodeficiency virus type 1 group M subtype B, UniProt P04585, C1203S/C1212S/C1427S/Q1295C); test: biochemical; format: binding, HIV-1
# T2 construct: 10 μM recombinant Q148C/SSS-mutant integrase was incubated with 10 μM DNA substrate; made in house
# Experimental: Briefly, 10 μM recombinant Q148C/SSS-mutant integrase was incubated with 10 μM DNA substrate (FIG. 5A) containing tethered thiols in the presence of 20 mM Tris, pH 7.4, 10% glycerol and 7.5 mM of divalent cations (MgCl2 or MnCl2 as indicated) for 20 min at 37° C. Reactions were stopped by the addition of 20 mM methylmethanethiosulfonate (capping reagent). Non-reducing gel loading buffer (100 mM Tris-HCl, pH 6.8, 4% SDS, 0.2% bromophenol blue, 20% glycerol) was added and samples were heated at 95° C. before loading onto 16% tricine gels (Invitrogen, Carlsbad, Calif.). Gels were stained with Microwave Blue according to manufacturer's recommendations (Protiga, Frederick, Md.).
# DNA (20 nM) containing a [5′-^32P]-label on one strand and a thiol-modified cytosine on the other strand was added and reactions were capped with methylmethanethiosulfonate at 1 minute. Following capping, non-reducing gel loading buffer (100 mM Tris-HCl, pH 6.8, 4% SDS, 0.2% bromophenol blue, 20% glycerol) was added and samples were directly loaded on 16% tricine gels (Invitrogen, Carlsbad, Calif.). Gels were dried and reaction products were quantitated using the same way as described above.
# HIV-1 integrase [3] = target: T1, HIV-1 integrase; test: Integrase catalytic assay, 3′-processing (3′-P), 21 bp duplex substrate; format: biochemical; conditions: In vitro IC50 21 bp substrate 3′-P
# Experimental: (§3) Recombinant HIV integrase and oligonucleotide substrates. Expression and purification of the recombinant HIV-1 integrase in Escherichia coli were performed according to (Leh et al., 2000; Marchand et al., 2001) with addition of 10% glycerol to all buffers. The preparation of the Q148C/SSS-mutant integrase will be described elsewhere (Johnson et al., 2005). The oligonucleotide substrates, except those used for the disulfide crosslinking (FIG. 5A), were purchased from Integrated DNA Technologies, Inc. (Coraville, Iowa) and purified by polyacrylamide gel. The single-stranded oligonucleotides were 5′-end labeled with [γ^32P]-ATP (Perkin Elmer, Wellesley, M A) and T4 polynucleotide kinase (New England BioLabs, Ipswich, M A). Unincorporated nucleotide was removed using mini Quick Spin Oligo columns (Roche Diagnostics, Indianapolis, Ind.). Substrates were obtained after annealing with complementary non-labeled oligonucleotides. The thiol-modified substrate (FIG. 5A) for disulfide crosslinking assay was synthesized as essentially described by W. Santos and G. Verdine (Department of Chemistry and Chemical Biology, Harvard University, Cambridge, Mass.) (They and Verdine, 2002).
# (§4) Integrase catalytic assays. Reactions were performed in 10 μl with 300 nM of recombinant IN, 20 nM of the 5′-end [^32P]-labeled oligonucleotide substrates and inhibitors at the indicated concentrations. 10% DMSO was included in controls. Reactions were incubated for 40 min at 37° C. in a buffer containing a final concentration of 25 mM MOPS, pH 7.2, 25 mM NaCl, 14.3 mM β-mercaptoethanol and 7.5 mM of divalent cations (MgCl2 or MnCl2 as indicated). Reactions were stopped by addition of 20 μl loading dye (10 mM EDTA, 98% deionized formamide, 0.025% xylene cyanol and 0.025% bromophenol blue). Reactions were heated at 95° C. for 1 min before electrophoresis in 20% polyacrylamide-7 M urea gels. Gels were dried and reaction products were visualized and quantitated with a Molecular Dynamics PhosphorImager (Sunnyvale, Calif.). Densitometric analyses were performed using ImageQuant from the Molecular Dynamics software. The concentrations at which enzyme activity was reduced by 50% (IC50), was determined using “Prism” software (GraphPad Software, San Diego, Calif.) for nonlinear regression to fit dose-response data to logistic curve models.
# HIV-1 integrase [4] = target: T1, HIV-1 integrase; test: Strand transfer assay with preprocessed (19/21) DNA substrate; format: biochemical; conditions: In vitro IC50 Preprocessed substrate
# Experimental: as §3, §4
# HIV-1 integrase [5] = target: T1, HIV-1 integrase; test: Integrase catalytic assay, strand transfer (ST), 21 bp duplex substrate; format: biochemical; conditions: for IC50: In vitro IC50 21 bp substrate ST
# Experimental: as §3, §4
# HIV-1 protease = HIV-1 protease (Human immunodeficiency virus type 1 group M subtype B, UniProt P04585); test: Fluorimetric HIV-1 protease assay; format: biochemical; conditions: concentration up to 25 μM; data not shown
# Experimental: Fluorimetric HIV-1 protease assay. The fluorescent HIV-1 protease substrate (RE-(EDANS)-SQNYPIVQK-(DABCYL)-R) was obtained from Molecular Probes, Inc. (Eugene, Oreg.). Substrate and buffer were pre-warmed at 37° C. for at least 20 min before use. The protease (25 nM final concentration) was incubated in the manufacturer's recommended assay buffer (100 mM Na acetate, 1M NaCl, 1 mM EDTA, 1 mM DTT, 10% DMSO and 1 mg ml^−1 BSA pH 4.7) at 37° C. in the presence of 1-25 μM NSC 18806 for 10 min and then added to the warmed substrate solution (40 μM) containing the different treatments to initiate the reaction. Acetyl pepstatin (Sigma, St. Louis, Mo.) at 20 nM was used a positive HIV-1 protease inhibitor control. The total assay volume was 100 µL. Fluorescence was monitored for 30 min in a fluorescence microplate reader (FMAX, Molecular Devices, Sunnyvale, Calif.) with 355 nm excitation and 460 nm emission filters and the rate of reactions compared for the different conditions.
# MT-2 cells = format: cell-based; conditions: human, 4 days
# Experimental: as §1, §2
# HIV-1 integrase [6] = target: T1, HIV-1 integrase; test: Disintegration assay with Y-oligomer substrate; format: biochemical; conditions: for IC50: In vitro IC50 Disintegration
# Experimental: as §3, §4
structure (smiles),measurement,setting,value
"CC(C)c1ccc(O)c(=O)c(O)c1 [NSC 18806, β-thujaplicinol]",IC50,"HIV-1IIIB; Human immunodeficiency virus 1, MT2, 96 h, four days after infection, read-out: estimated IC50, protection of infected cells from HIV-induced cytopathic effect",~12 µM
same,activity in HIV infectivity assay (in words),HIV-1IIIB,exhibits cytoprotective activity
same,inhibition of Schiff base IN-DNA crosslinking (in words),HIV-1 integrase [1],did not block
same,IC50,[2],32 µM
same,inhibition of integrase-DNA disulfide-crosslinking (in words),"[2]; drug 1 mM, Mg2+ or Mn2+ (FIG. 5B)",metal-dependent inhibition
same,IC50,HIV-1 integrase [3]; Mg2+,117 ± 7.1 µM
same,IC50,HIV-1 integrase [3]; Mn2+,24.6 µM
same,IC50,HIV-1 integrase [4]; Mg2+,18.1 ± 6.2 µM
same,IC50,HIV-1 integrase [4]; Mn2+,5 µM
same,IC50 for 3′-P relative to IC50 for ST,"HIV-1 integrase [5]; 21 bp duplex, in the presence of either Mg2+ or Mn2+",approximately 5 fold
same,IC50,HIV-1 integrase [5]; Mg2+,21.6 ± 3.4 µM
same,IC50,HIV-1 integrase [5]; Mn2+,4.8 ± 2.5 µM
same,inhibition of HIV-1 protease (in words),HIV-1 protease,failed to inhibit HIV-1 protease
same,concentrations with presence of toxicity,MT-2 cells,≥ 12 µM
same,IC50,HIV-1 integrase [6]; Mg2+,> 333 µM
same,IC50,HIV-1 integrase [6]; Mn2+,23.8 µM
same,inhibition of disintegration (in words),HIV-1 integrase [6]; Mg2+,inability of NSC 18806 to inhibit disintegration
same,inhibition of disintegration (in words),HIV-1 integrase [6]; Mn2+,only inhibited in the presence of Mn^2+ at high drug concentration
same,inhibition at 333 µM,"HIV-1 integrase [6]; read-out: inhibition activity, disintegration",5 to 20%

# — US20100152301A1, “Treatment of Viral Infections” (GOVERNMENT OF THE US, AS REPRESENTED BY THE SECRETARY, …, priority 2005, published 2010)
